In assay [1] the target is Tyrosine-protein kinase JAK1 (Homo sapiens, UniProt P23458).
In assay [2] the target is T1, Tyrosine-protein kinase JAK3 (Homo sapiens, UniProt P52333).
T1 sequence (P52333 whole entry): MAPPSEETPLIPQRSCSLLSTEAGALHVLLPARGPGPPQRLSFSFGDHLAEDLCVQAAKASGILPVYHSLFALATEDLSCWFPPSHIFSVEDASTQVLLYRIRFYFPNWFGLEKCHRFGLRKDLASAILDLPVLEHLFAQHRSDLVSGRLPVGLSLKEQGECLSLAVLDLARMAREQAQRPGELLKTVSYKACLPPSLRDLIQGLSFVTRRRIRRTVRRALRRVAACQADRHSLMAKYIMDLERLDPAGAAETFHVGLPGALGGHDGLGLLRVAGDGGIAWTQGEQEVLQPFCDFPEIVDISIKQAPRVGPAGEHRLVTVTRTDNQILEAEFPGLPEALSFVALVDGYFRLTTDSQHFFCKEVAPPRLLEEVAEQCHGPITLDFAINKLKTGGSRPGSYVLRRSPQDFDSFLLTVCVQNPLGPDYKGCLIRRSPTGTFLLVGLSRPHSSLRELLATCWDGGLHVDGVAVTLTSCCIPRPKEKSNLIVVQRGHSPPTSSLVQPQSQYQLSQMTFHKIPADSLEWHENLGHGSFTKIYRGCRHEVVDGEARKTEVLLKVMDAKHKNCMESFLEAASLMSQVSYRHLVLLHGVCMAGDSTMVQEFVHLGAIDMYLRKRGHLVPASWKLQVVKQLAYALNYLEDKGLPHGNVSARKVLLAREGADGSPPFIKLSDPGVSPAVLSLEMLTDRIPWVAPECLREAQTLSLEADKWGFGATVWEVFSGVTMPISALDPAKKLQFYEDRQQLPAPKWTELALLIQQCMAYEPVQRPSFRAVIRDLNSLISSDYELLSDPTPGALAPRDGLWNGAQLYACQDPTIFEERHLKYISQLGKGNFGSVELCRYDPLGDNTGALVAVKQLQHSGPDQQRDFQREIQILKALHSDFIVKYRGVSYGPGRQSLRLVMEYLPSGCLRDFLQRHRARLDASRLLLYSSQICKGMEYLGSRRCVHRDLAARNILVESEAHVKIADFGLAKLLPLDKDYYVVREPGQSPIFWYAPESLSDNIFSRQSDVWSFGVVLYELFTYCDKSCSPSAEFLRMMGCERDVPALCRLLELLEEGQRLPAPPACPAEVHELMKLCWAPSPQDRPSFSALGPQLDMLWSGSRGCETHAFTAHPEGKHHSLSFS

pIC50: −log10 of the molar value.

The term pIC50 denotes −log10 of the IC50, conventionally taken in molar units. A higher pIC50 goes with a low IC50. On to `CC(C)NC(=O)c1c[nH]c2ncc(Oc3ccccc3)nc12`, for which the pIC50 in assay [1] was 6.08.
Same read-out and setting: next, `Cc1cccc(Oc2cnc3[nH]cc(C(=O)NC(C)C)c3n2)c1`: 5.67; `CCc1cccc(Oc2cnc3[nH]cc(C(=O)NC(C)C)c3n2)c1`: 5.38; `COc1cc(OC)cc(Oc2cnc3[nH]cc(C(=O)NC(C)C)c3n2)c1`: 5.09.
On the same count and under the same terms, then `CC(C)NC(=O)c1c[nH]c2ncc(Oc3cccc(C#N)c3)nc12`, with 5.50; and `CC(C)NC(=O)c1c[nH]c2ncc(Oc3ccc(C#N)cc3)nc12`, with 5.46.
`Cc1ccccc1Oc1cnc2[nH]cc(C(=O)NC(C)C)c2n1` had a pIC50 in assay [1] of 5.29.
In the case of `CC(NC(=O)c1c[nH]c2ncc(Oc3ccccc3)nc12)C1CC1` (stereo not drawn), the pIC50 in assay [1] was 6.66.
Turning to `CC(C)NC(=O)c1c[nH]c2ncc(Oc3ccc4c(c3)CCC4)nc12`, the pIC50 in assay [1] is 5.48.
Same read-out and setting: then `CC(=O)N[C@H]1CCc2ccc(Oc3cnc4[nH]cc(C(=O)NC(C)C)c4n3)cc21`, with 5.36; and `CC(=O)N[C@@H]1CCc2ccc(Oc3cnc4[nH]cc(C(=O)NC(C)C)c4n3)cc21`, with 5.20; and `CC(=O)N[C@@H]1CCc2ccc(Oc3cnc4[nH]cc(C(=O)N[C@@H](C)C5CC5)c4n3)cc21`, with 6.06.
In assay [1], `CC(=O)N[C@@H]1CCc2ccc(Oc3cnc4[nH]cc(C(=O)N[C@H](C)C5CC5)c4n3)cc21` showed a pIC50 of 5.68.
For `CC(=O)N[C@@H]1CCc2ccc(Oc3cnc4[nH]cc(C(=O)N[C@H](C)C(=O)N5CC(C#N)C5)c4n3)cc21`, the pIC50 was 4.94 in assay [1] and 6.95 in assay [2].
The corresponding values for `CC(=O)N[C@@H]1CCc2ccc(Oc3cnc4[nH]cc(C(=O)N[C@@H](C(=O)N5CC(C#N)C5)C5CC5)c4n3)cc21` are 6.58 and 8.30.
As for `CC(=O)N[C@@H]1CCc2ccc(Oc3cnc4[nH]cc(C(=O)N[C@@H](C(=O)N5CC(C#N)C5)C(C)(C)C)c4n3)cc21`, the pIC50 in assay [1] is 6.06.

Values taken from ChEMBL document CHEMBL2375291, “Discovery of a series of novel 5H-pyrrolo[2,3-b]pyrazine-2-phenyl ethers, as potent JAK3 kinase inhibitors” (Bioorg Med Chem Lett, 2013).
